Four compounds from article PMC3982047 (Nature, 2014) can be followed below.

Peptide text beside a SMILES is read from it.

The target in assay [1] is AtNRT1.1 (Arabidopsis thaliana, UniProt Q05085, T101D). As to the kind of experiment: microscale thermophoresis. The class given is binding. (In general: Microscale thermophoresis detects binding through changes in fluorescence in a small temperature gradient.)
Assay [2] addresses AtNRT1.1 (Arabidopsis thaliana, UniProt Q05085). Nature of the assay: biochemical.
Assay [3] has as its target PepTSo (Shewanella oneidensis, UniProt Q8EKT7). Nature of the assay: microscale thermophoresis. The class given is binding.
Assay [4] has as its target PepTSo, peptide transporter from Shewanella oniendensis (Shewanella oniendensis (so in the source)). Nature of the assay: MST.
The target in assay [5] is T1, AtNRT1.1 (Arabidopsis thaliana, UniProt Q05085).
T1 sequence (Q05085 1-590): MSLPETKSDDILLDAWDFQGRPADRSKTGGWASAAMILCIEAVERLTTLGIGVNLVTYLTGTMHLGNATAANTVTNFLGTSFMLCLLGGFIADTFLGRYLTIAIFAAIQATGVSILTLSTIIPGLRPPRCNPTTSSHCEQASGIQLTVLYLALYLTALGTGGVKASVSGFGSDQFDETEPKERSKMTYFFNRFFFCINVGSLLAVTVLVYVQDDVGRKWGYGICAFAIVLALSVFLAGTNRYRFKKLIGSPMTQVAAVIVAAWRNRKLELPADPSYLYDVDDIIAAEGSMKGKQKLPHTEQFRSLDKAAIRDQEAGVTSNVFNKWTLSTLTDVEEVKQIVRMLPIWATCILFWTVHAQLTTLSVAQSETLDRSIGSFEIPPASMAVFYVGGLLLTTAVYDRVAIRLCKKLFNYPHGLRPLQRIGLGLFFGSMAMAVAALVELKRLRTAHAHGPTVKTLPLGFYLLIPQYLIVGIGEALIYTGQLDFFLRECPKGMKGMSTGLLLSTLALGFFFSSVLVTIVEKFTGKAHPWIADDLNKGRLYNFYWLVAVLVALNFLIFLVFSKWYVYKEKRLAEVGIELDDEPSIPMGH
Nature of the assay: microscale thermophoresis. The assay is classed as binding.

Chain of AtNRT1.1 (Arabidopsis thaliana, UniProt Q05085, T101D) (Q05085 whole entry T101D): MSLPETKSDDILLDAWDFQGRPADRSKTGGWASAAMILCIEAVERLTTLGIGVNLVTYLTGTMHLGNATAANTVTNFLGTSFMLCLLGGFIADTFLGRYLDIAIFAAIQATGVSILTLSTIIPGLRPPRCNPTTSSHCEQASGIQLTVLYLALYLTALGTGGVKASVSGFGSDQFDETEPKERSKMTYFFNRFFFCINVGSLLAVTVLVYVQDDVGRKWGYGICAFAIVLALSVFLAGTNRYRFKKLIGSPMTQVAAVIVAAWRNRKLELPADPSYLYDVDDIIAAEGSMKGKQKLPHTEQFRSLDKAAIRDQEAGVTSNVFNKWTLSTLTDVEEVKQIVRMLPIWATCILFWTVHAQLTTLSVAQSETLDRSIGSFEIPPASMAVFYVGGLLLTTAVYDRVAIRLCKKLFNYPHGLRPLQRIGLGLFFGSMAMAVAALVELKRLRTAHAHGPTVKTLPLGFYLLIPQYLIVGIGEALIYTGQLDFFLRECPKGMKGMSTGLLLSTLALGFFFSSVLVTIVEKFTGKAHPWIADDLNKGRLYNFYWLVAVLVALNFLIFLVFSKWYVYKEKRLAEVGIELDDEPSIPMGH

One may read the Kd as the concentration at which binding is half-saturated. A low value points to tighter binding. In the case of `O=[N+]([O-])O` [nitrate], the results for the Kd in assay [1] and in assay [2] were 1000 ± 120 µM and 1000 ± 150 µM, respectively. `C[C@H](N)C(=O)N[C@@H](C)C(=O)O` [Ala-Ala] (H-Ala-Ala-OH) had a Kd in assay [3] of about 35 µM.

In assay [4], di-peptide Ala-Ala showed an equilibrium dissociation constant (Kd) of 35 µM. In turn, `[O-][Cl+2]([O-])O` [chlorate] displayed a Kd in assay [5] of about 5000 µM.
